Data: publication PMC6274827 (2018)

Experiments:
[1] = test system: F21D (DNA, G4) GGGTTAGGGTTAGGGTTAGGG; assay: FRET melting; conditions: 5 mM K+, 95 mM Li+, 10 mM lithium cacodylate, pH 7.2, 0.2 µM F21D
[2] = test system: Tel22 (DNA, G4) AGGGTTAGGGTTAGGGTTAGGG; assay: UV-Vis titration, Direct Fit; conditions: 5 mM K+, 95 mM Li+; 10 mM lithium cacodylate, pH 7.2; equivalent independent sites assumed; per site

SMILES | ΔTm ([1]; 7.5 eq. compound) | Ka [2] | ΔTm ([1]; 20 eq. compound, weak stabilization up to 8 eq.)
NCCCNCCCCNCCCNC(=O)c1ccc(-c2c3nc(c(-c4ccc(C(=O)NCCCNCCCCNCCCN)cc4)c4ccc([nH]4)c(-c4ccc(C(=O)NCCCNCCCCNCCCN)cc4)c4nc(c(-c5ccc(C(=O)NCCCNCCCCNCCCN)cc5)c5ccc2[nH]5)C=C4)C=C3)cc1 | 36 ± 2 °C | (4.7 ± 0.7) × 10^6 M^-1 | –
NCCCNCCCCNCCCNC(=O)c1ccc(-c2c3nc(c(-c4ccc(C(=O)NCCCNCCCCNCCCN)cc4)c4ccc([n-]4)c(-c4ccc(C(=O)NCCCNCCCCNCCCN)cc4)c4nc(c(-c5ccc(C(=O)NCCCNCCCCNCCCN)cc5)c5ccc2[n-]5)C=C4)C=C3)cc1.O.[Zn+2] | – | (1.4 ± 0.7) × 10^7 M^-1 | 33 ± 2 °C
